Laboratory results published in US7932384B2, “Reverse-turn mimetics and method relating thereto” (Choongwae Pharma Corporation, priority 2001, dated 2011).

What was measured:
Assay type in all cases: cell-based
HCT116 = assay: Sulforhodamine B (SRB) assay, HCT116; conditions: Colon, HCT116, 48 hours
Experimental: (§1) Growth inhibitory effect of Compound A on the cells listed below was measured by the sulforhodamine B assay. SW480 cells in 100 μl media were plated in each well of 96-well plate and allowed to attach for 24 hours. Compound A was added to the wells to produce the desired final concentrations, and the plates were incubated at 37° C. for 48 hours. The cells were then fixed by gentle addition of 100 μl of cold (4° C.) 10% trichloroacetic acid to each well, followed by incubation at 4° C. for 1 hour. Plates were washed with deionized water five times and allowed to air dry. The cells were then stained by addition of 100 μl SRB solution (0.4% SRB(w/v) in 1% acetic acid (v/v)) to wells for 15 min. After staining, the plates were quickly washed five times with 1% acetic acid to remove any unbound dye, and allowed to air dry. Bound dye was solubilized with 10 mmol/L Tris base (pH 10.5) prior to reading the plates. The optical density (OD) was read on a plate reader at a wavelength of 515 nm with Molecular Device. Inhibition of growth was expressed as relative viability (% of control) and GI50 was calculated from concentration-response curves after log/probit transformation.
(§2) The values in Table 6 are in μg/ml.

293 = assay: Sulforhodamine B (SRB) assay, 293; conditions: Renal, 293, 48 hours
Experimental: as §1, §2

HT29 = assay: Sulforhodamine B (SRB) assay, HT29; conditions: Colon, HT29, 48 hours
Experimental: as §1, §2

SW480-CWP = assay: Sulforhodamine B (SRB) assay, SW480-CWP; conditions: Colon, 48 hours
Experimental: as §1, §2

A375 = assay: Sulforhodamine B (SRB) assay, A375; conditions: Melanoma, A375, 48 hours
Experimental: as §1, §2

SW480-Kribb = assay: Sulforhodamine B (SRB) assay, SW480-Kribb; conditions: Colon, 48 hours
Experimental: as §1, §2

MCF7 = assay: Sulforhodamine B (SRB) assay, MCF7; conditions: Breast, MCF7, 48 hours
Experimental: as §1, §2

MCF7/ADR = assay: Sulforhodamine B (SRB) assay, MCF7/ADR; conditions: Breast, 48 hours
Experimental: as §1, §2

LOVO = assay: Sulforhodamine B (SRB) assay, LOVO; conditions: Colon, 48 hours
Experimental: as §1, §2

KM12 = assay: Sulforhodamine B (SRB) assay, KM12; conditions: Colon, KM12, 48 hours
Experimental: as §1, §2

786-0 = assay: Sulforhodamine B (SRB) assay, 786-0; conditions: Renal, 786-0, 48 hours
Experimental: as §1, §2

G361 = assay: Sulforhodamine B (SRB) assay, G361; conditions: Melanoma, G361, 48 hours
Experimental: as §1, §2

A549 = assay: Sulforhodamine B (SRB) assay, A549; conditions: Lung, A549, 48 hours
Experimental: as §1, §2

CAKI-1 = assay: Sulforhodamine B (SRB) assay, CAKI-1; conditions: Renal, CAKI-1, 48 hours
Experimental: as §1, §2

CRL1579 = assay: Sulforhodamine B (SRB) assay, CRL1579; conditions: Melanoma, CRL1579, 48 hours
Experimental: as §1, §2

NCI H23 = assay: Sulforhodamine B (SRB) assay, NCI H23; conditions: Lung, NCI H23, 48 hours
Experimental: as §1, §2

M14 = assay: Sulforhodamine B (SRB) assay, M14; conditions: Melanoma, M14, 48 hours
Experimental: as §1, §2

T84 = assay: Sulforhodamine B (SRB) assay, T84; conditions: Colon, T84, 48 hours
Experimental: as §1, §2

SW620 = assay: Sulforhodamine B (SRB) assay, SW620; conditions: Colon, SW620, 48 hours
Experimental: as §1, §2

UACC62 = assay: Sulforhodamine B (SRB) assay, UACC62; conditions: Melanoma, UACC62, 48 hours
Experimental: as §1, §2

HCT15 = assay: Sulforhodamine B (SRB) assay, HCT15; conditions: Colon, HCT15, 48 hours
Experimental: as §1, §2

HCC2998 = assay: Sulforhodamine B (SRB) assay, HCC2998; conditions: Colon, HCC2998, 48 hours
Experimental: as §1, §2

SK-MEL-28 = assay: Sulforhodamine B (SRB) assay, SK-MEL-28; conditions: Melanoma, SK-MEL-28, 48 hours
Experimental: as §1, §2

HT1080 = assay: Sulforhodamine B (SRB) assay, HT1080; conditions: Prostate, HT1080, 48 hours
Experimental: as §1, §2

HL60 = assay: Sulforhodamine B (SRB) assay, HL60; conditions: Leukemia, HL60, 48 hours
Experimental: as §1, §2

ACHN = assay: Sulforhodamine B (SRB) assay, ACHN; conditions: Renal, 48 hours
Experimental: as §1, §2

LOX-IMVI = assay: Sulforhodamine B (SRB) assay, LOX-IMVI; conditions: Melanoma, 48 hours
Experimental: as §1, §2

K562/ADR = assay: Sulforhodamine B (SRB) assay, K562/ADR; conditions: Leukemia, 48 hours
Experimental: as §1, §2

COLO205 = assay: Sulforhodamine B (SRB) assay, COLO205; conditions: Colon, COLO205, 48 hours
Experimental: as §1, §2

HMV-I = assay: Sulforhodamine B (SRB) assay, HMV-I; conditions: Melanoma, 48 hours
Experimental: as §1, §2

RPMI7951 = assay: Sulforhodamine B (SRB) assay, RPMI7951; conditions: Melanoma, RPMI7951, 48 hours
Experimental: as §1, §2

A431 = assay: Sulforhodamine B (SRB) assay, A431; conditions: Melanoma, A431, 48 hours
Experimental: as §1, §2

CACO-2 = assay: Sulforhodamine B (SRB) assay, CACO-2; conditions: Colon, CACO-2, 48 hours
Experimental: as §1, §2

NCI H460 = assay: Sulforhodamine B (SRB) assay, NCI H460; conditions: Lung, NCI H460, 48 hours
Experimental: as §1, §2

A253 = assay: Sulforhodamine B (SRB) assay, A253; conditions: Melanoma, A253, 48 hours
Experimental: as §1, §2

PC3 = assay: Sulforhodamine B (SRB) assay, PC3; conditions: Prostate, PC3, 48 hours
Experimental: as §1, §2

K562 = assay: Sulforhodamine B (SRB) assay, K562; conditions: Leukemia, K562, 48 hours
Experimental: as §1, §2

K562/VIN = assay: Sulforhodamine B (SRB) assay, K562/VIN; conditions: Leukemia, 48 hours
Experimental: as §1, §2

DLD-1 = assay: Sulforhodamine B (SRB) assay, DLD-1; conditions: Colon, DLD-1, 48 hours
Experimental: as §1, §2

SK-MEL-5 = assay: Sulforhodamine B (SRB) assay, SK-MEL-5; conditions: Melanoma, SK-MEL-5, 48 hours
Experimental: as §1, §2

RPMI8226 = assay: Sulforhodamine B (SRB) assay, RPMI8226; conditions: Leukemia, RPMI8226, 48 hours
Experimental: as §1, §2

caspase 3 = assay: Caspase 3 activity in cultured tumor cells; conditions: 0.5 μM
cultured tumor cells [1] = assay: FACS analysis of cells in G0, cultured tumor cells; conditions: 0.5 μM
caspase 2 = assay: Caspase 2 activity in cultured tumor cells; conditions: 0.5 μM
cultured tumor cells [2] = assay: Cell death of cultured tumor cells; conditions: 0.5 μM

## 2-Methyl-5-(p-hydroxyphenylmethyl)-7-naphthylmethyl-3,6-dioxo-hexahydro-[1,2,4]triazolo[4,5-a]pyrazine-1-carboxylic acid benzylamide [Example 4]
HCT116
  GI50 (SRB assay): 0.96 µg/mL
293
  GI50 (SRB assay): 0.731 µg/mL
HT29
  GI50 (SRB assay): 1.694 µg/mL
SW480-CWP
  GI50 (SRB assay): 0.980 µg/mL
A375
  GI50 (SRB assay): 1.391 µg/mL
SW480-Kribb
  GI50 (SRB assay): 1.137 µg/mL
MCF7
  GI50 (SRB assay): 7.355 µg/mL
MCF7/ADR
  GI50 (SRB assay): 9.487 µg/mL
LOVO
  GI50 (SRB assay): 0.532 µg/mL
KM12
  GI50 (SRB assay): 1.451 µg/mL
786-0
  GI50 (SRB assay): 1.417 µg/mL
G361
  GI50 (SRB assay): 0.584 µg/mL
A549
  GI50 (SRB assay): 1.386 µg/mL
CAKI-1
  GI50 (SRB assay): 0.467 µg/mL
CRL1579
  GI50 (SRB assay): 1.830 µg/mL
NCI H23
  GI50 (SRB assay): 1.296 µg/mL
M14
  GI50 (SRB assay): 2.289 µg/mL
T84
  GI50 (SRB assay): 1.134 µg/mL
SW620
  GI50 (SRB assay): 1.426 µg/mL
UACC62
  GI50 (SRB assay): 0.563 µg/mL
HCT15
  GI50 (SRB assay): 2.042 µg/mL
HCC2998
  GI50 (SRB assay): 1.047 µg/mL
SK-MEL-28
  GI50 (SRB assay): 1.291 µg/mL
HT1080
  GI50 (SRB assay): 1.469 µg/mL
HL60
  GI50 (SRB assay): 1.243 µg/mL
ACHN
  GI50 (SRB assay): 1.263 µg/mL
LOX-IMVI
  GI50 (SRB assay): 1.526 µg/mL
K562/ADR
  GI50 (SRB assay): 7.682 µg/mL
COLO205
  GI50 (SRB assay): 1.136 µg/mL
HMV-I
  GI50 (SRB assay): 1.153 µg/mL
RPMI7951
  GI50 (SRB assay): 0.936 µg/mL
A431
  GI50 (SRB assay): 1.083 µg/mL
CACO-2
  GI50 (SRB assay): 1.201 µg/mL
NCI H460
  GI50 (SRB assay): 1.498 µg/mL
A253
  GI50 (SRB assay): 1.398 µg/mL
PC3
  GI50 (SRB assay): 1.207 µg/mL
K562
  GI50 (SRB assay): 1.247 µg/mL
K562/VIN
  GI50 (SRB assay): 1.640 µg/mL
DLD-1
  GI50 (SRB assay): 1.775 µg/mL
SK-MEL-5
  GI50 (SRB assay): 0.888 µg/mL

## N.N.[Cl][Pt][Cl] [Cisplatin, cisplatin, reference compound]
HCT116
  GI50 (SRB assay): >10 µg/mL
HT29
  GI50 (SRB assay): >10 µg/mL
RPMI8226
  GI50 (SRB assay): >10 µg/mL
A375
  GI50 (SRB assay): >10 µg/mL
SW480-Kribb
  GI50 (SRB assay): >10 µg/mL
MCF7
  GI50 (SRB assay): >10 µg/mL
LOVO
  GI50 (SRB assay): >10 µg/mL
KM12
  GI50 (SRB assay): >10 µg/mL
A549
  GI50 (SRB assay): >10 µg/mL
CAKI-1
  GI50 (SRB assay): >10 µg/mL
T84
  GI50 (SRB assay): >10 µg/mL
SW620
  GI50 (SRB assay): >10 µg/mL
UACC62
  GI50 (SRB assay): >10 µg/mL
HCT15
  GI50 (SRB assay): >10 µg/mL
HCC2998
  GI50 (SRB assay): >10 µg/mL
SK-MEL-28
  GI50 (SRB assay): >10 µg/mL
HT1080
  GI50 (SRB assay): >10 µg/mL
HL60
  GI50 (SRB assay): >10 µg/mL
LOX-IMVI
  GI50 (SRB assay): >10 µg/mL
K562/ADR
  GI50 (SRB assay): >10 µg/mL
COLO205
  GI50 (SRB assay): >10 µg/mL
NCI H460
  GI50 (SRB assay): >10 µg/mL
PC3
  GI50 (SRB assay): >10 µg/mL
K562
  GI50 (SRB assay): >10 µg/mL
K562/VIN
  GI50 (SRB assay): >10 µg/mL
DLD-1
  GI50 (SRB assay): >10 µg/mL
SK-MEL-5
  GI50 (SRB assay): >10 µg/mL

## CN[C@@H]1C[C@H]2O[C@@](C)([C@@H]1OC)n1c3ccccc3c3c4c(c5c6ccccc6n2c5c31)C(=O)NC4 [stausporine, staurosporine, reference compound]
Caspase 3
  caspase 3 activity: increased both the caspase 2 and caspase 3 activities
Cultured tumor cells [1]
  number of cells in G0 (FACS): increase the number of cells in G0
Caspase 2
  caspase 2 activity: increased both the caspase 2 and caspase 3 activities
Cultured tumor cells [2]
  cell death: promote cell death
